Measured values from patent US20260285850A1, “SUBSTITUTED OXAZOLIDINONES AND IMIDAZOLINONES AS HERBICIDES” (FMC CORPORATION, priority 2023, published 2026).

Key:
Assay type in all cases: in vivo
[1] = system: barnyardgrass (Echinochloa crus-galli); test: Test A preemergence soil spray, visual injury rating 0-100; conditions: 10 days, 0 = no effect, 100 = complete control
Method in brief: (§1)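 Scale 0–100 (no effect to complete control), visual, versus untreated controls, read 10 days after application. Application: preemergence directed spray onto seeded loam–sand soil, or postemergence to young plants; formulation in non-phytotoxic solvent with surfactant.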

[2] = system: blackgrass (Alopecurus myosuroides); test: as above; conditions: 10 days, 0 = no effect, 100 = complete control
Method in brief: as §1

corn (Zea mays) [3] = test: as above; conditions: 10 days, 0 = no effect, 100 = complete control
Method in brief: as §1

[4] = system: green foxtail (Setaria viridis); test: as above; conditions: 10 days, 0 = no effect, 100 = complete control
Method in brief: as §1

kochia (Bassia scoparia) [5] = test: as above; conditions: 10 days, 0 = no effect, 100 = complete control
Method in brief: as §1

[6] = system: oat, wild (wild oat, Avena fatua); test: as above; conditions: 10 days, 0 = no effect, 100 = complete control
Method in brief: as §1

[7] = system: palmer (palmer amaranth, palmer pigweed, Amaranthus palmeri); test: as above; conditions: 10 days, 0 = no effect, 100 = complete control
Method in brief: as §1

[8] = system: ragweed (common ragweed, Ambrosia artemisiifolia); test: as above; conditions: 10 days, 0 = no effect, 100 = complete control
Method in brief: as §1

[9] = system: ryegrass, Italian (italian ryegrass, Lolium multiflorum); test: as above; conditions: 10 days, 0 = no effect, 100 = complete control
Method in brief: as §1

soybean (Glycine max) [10] = test: as above; conditions: 10 days, 0 = no effect, 100 = complete control
Method in brief: as §1

[11] = system: wheat (Triticum aestivum); test: as above; conditions: 10 days, 0 = no effect, 100 = complete control
Method in brief: as §1

[12] = system: barnyardgrass (Echinochloa crus-galli); test: Test A postemergence application, visual injury rating 0-100; conditions: Postemergence, 10 days, 0 is no effect, 100 is complete control
Method in brief: as §1

[13] = system: blackgrass (Alopecurus myosuroides); test: as above; conditions: Postemergence, 10 days, 0 is no effect, 100 is complete control
Method in brief: as §1

corn (Zea mays) [14] = test: as above; conditions: Postemergence, 10 days, 0 is no effect, 100 is complete control
Method in brief: as §1

[15] = system: galium (catchweed bedstraw, Galium aparine); test: as above; conditions: Postemergence, 10 days, 0 is no effect, 100 is complete control
Method in brief: as §1

[16] = system: green foxtail (Setaria viridis); test: as above; conditions: Postemergence, 10 days, 0 is no effect, 100 is complete control
Method in brief: as §1

[17] = system: horseweed (Erigeron canadensis); test: as above; conditions: Postemergence, 10 days, 0 is no effect, 100 is complete control
Method in brief: as §1

kochia (Bassia scoparia) [18] = test: as above; conditions: Postemergence, 10 days, 0 is no effect, 100 is complete control
Method in brief: as §1

[19] = system: oat, wild (wild oat, Avena fatua); test: as above; conditions: Postemergence, 10 days, 0 is no effect, 100 is complete control
Method in brief: as §1

[20] = system: palmer (palmer amaranth, palmer pigweed, Amaranthus palmeri); test: as above; conditions: Postemergence, 10 days, 0 is no effect, 100 is complete control
Method in brief: as §1

[21] = system: ragweed (common ragweed, Ambrosia artemisiifolia); test: as above; conditions: Postemergence, 10 days, 0 is no effect, 100 is complete control
Method in brief: as §1

[22] = system: ryegrass, Italian (italian ryegrass, Lolium multiflorum); test: as above; conditions: Postemergence, 10 days, 0 is no effect, 100 is complete control
Method in brief: as §1

soybean (Glycine max) [23] = test: as above; conditions: Postemergence, 10 days, 0 is no effect, 100 is complete control
Method in brief: as §1

[24] = system: wheat (Triticum aestivum); test: as above; conditions: Postemergence, 10 days, 0 is no effect, 100 is complete control
Method in brief: as §1

[25] = system: barnyardgrass (Echinochloa crusgalli); test: Test B flooded paddy test, visual plant response rating 0-100; conditions: 250 g ai/ha, Flood, applied to paddy water, evaluated after 13 days
Method in brief: (§2)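 Greenhouse, 13 d. Seedlings at 2-leaf stage, pots flooded to 3 cm, compound delivered into floodwater, water level held constant. Evaluated visually relative to controls.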

[26] = system: ducksalad (Heteranthera limosa); test: as above; conditions: 250 g ai/ha, Flood, applied to paddy water, evaluated after 13 days
Method in brief: as §2

rice (Oryza sativa) = test: as above; conditions: 250 g ai/ha, Flood, applied to paddy water, evaluated after 13 days
Method in brief: as §2

[27] = system: sedge, umbrella (small-flower umbrella sedge, Cyperus difformis); test: as above; conditions: 250 g ai/ha, Flood, applied to paddy water, evaluated after 13 days
Method in brief: as §2

Which “Barnyardgrass plant response rating (0 to 100 scale)” value (from here on “Barnyardgrass plant response rating”) ([1]; 125 g ai/ha) does the source give for `CSCCOC(=O)C1C=CC(NC(=O)C2(C)CN(c3cc(Cl)cc(Cl)c3)C(=O)O2)C1` (stereo not shown) [Compound 45] here?
The value was 100.

What about the “Barnyardgrass plant response rating” value ([1]; 500 g ai/ha) of the same molecule?
Its value is 100.

And the “Blackgrass plant response rating (0 to 100 scale)” value (“Blackgrass plant response rating” below) ([2]; 125 g ai/ha)?
The value was 90.

What about the “Blackgrass plant response rating” value ([2]; 500 g ai/ha) of the same molecule?
Its value is 90.

What about the “Corn plant response rating (0 to 100 scale)” value (“Corn plant response rating” below) (corn (Zea mays) [3]; 125 g ai/ha) of the same molecule?
The value was 20.

And the “Corn plant response rating” value (corn (Zea mays) [3]; 500 g ai/ha)?
Its value is 60.

What about the “Foxtail, Green plant response rating (0 to 100 scale)” value (from here on “Foxtail, Green plant response rating”) ([4]; 125 g ai/ha) of the same molecule?
Its value is 90.

What about the “Foxtail, Green plant response rating” value ([4]; 500 g ai/ha) of the same molecule?
Its value is 100.

And the “Kochia plant response rating (0 to 100 scale)” value (“Kochia plant response rating” for short) (kochia (Bassia scoparia) [5]; 125 g ai/ha)?
The value was 20.

And the “Kochia plant response rating” value (kochia (Bassia scoparia) [5]; 500 g ai/ha)?
The value was 100.

And the “Oat, Wild plant response rating (0 to 100 scale)” value (“Oat, Wild plant response rating” for short) ([6]; 125 g ai/ha)?
The value was 80.

What about the “Oat, Wild plant response rating” value ([6]; 500 g ai/ha) of the same molecule?
Its value is 90.

And the “Amaranth, Palmer plant response rating (0 to 100 scale)” value ([7]; 125 g ai/ha)?
The value was 100.

What about the “Amaranth, Palmer plant response rating (0 to 100 scale)” value ([7]; 500 g ai/ha) of the same molecule?
The value was 100.

What about the “Ragweed plant response rating (0 to 100 scale)” value (“Ragweed plant response rating” below) ([8]; 125 g ai/ha) of the same molecule?
Its value is 20.

What about the “Ragweed plant response rating” value ([8]; 500 g ai/ha) of the same molecule?
Its value is 70.

What about the “Ryegrass, Italian plant response rating (0 to 100 scale)” value (“Ryegrass, Italian plant response rating” for short) ([9]; 125 g ai/ha) of the same molecule?
The value was 90.

And the “Ryegrass, Italian plant response rating” value ([9]; 500 g ai/ha)?
Its value is 90.

And the “Soybean plant response rating (0 to 100 scale)” value (“Soybean plant response rating” below) (soybean (Glycine max) [10]; 125 g ai/ha)?
Its value is 30.

What about the “Soybean plant response rating” value (soybean (Glycine max) [10]; 500 g ai/ha) of the same molecule?
The value was 60.

What about the “Wheat plant response rating (0 to 100 scale)” value (“Wheat plant response rating” for short) ([11]; 125 g ai/ha) of the same molecule?
Its value is 90.

And the “Wheat plant response rating” value ([11]; 500 g ai/ha)?
The value was 90.

What about the “Barnyardgrass plant response rating” value ([12]; 125 g ai/ha) of the same molecule?
Its value is 100.

And the “Barnyardgrass plant response rating” value ([12]; 500 g ai/ha)?
Its value is 100.

And the “Blackgrass plant response rating” value ([13]; 125 g ai/ha)?
The value was 100.

What about the “Blackgrass plant response rating” value ([13]; 500 g ai/ha) of the same molecule?
The value was 100.

What about the “Corn plant response rating” value (corn (Zea mays) [14]; 125 g ai/ha) of the same molecule?
Its value is 100.

What about the “Corn plant response rating” value (corn (Zea mays) [14]; 500 g ai/ha) of the same molecule?
The value was 100.

And the “Galium plant response rating (0 to 100 scale)” value ([15]; 125 g ai/ha)?
The value was 70.

And the “Galium plant response rating (0 to 100 scale)” value ([15]; 500 g ai/ha)?
The value was 70.

What about the “Foxtail, Green plant response rating” value ([16]; 125 g ai/ha) of the same molecule?
The value was 80.

And the “Foxtail, Green plant response rating” value ([16]; 500 g ai/ha)?
The value was 90.

What about the “Horseweed plant response rating (0 to 100 scale)” value ([17]; 125 g ai/ha) of the same molecule?
The value was 80.

And the “Horseweed plant response rating (0 to 100 scale)” value ([17]; 500 g ai/ha)?
The value was 80.

And the “Kochia plant response rating” value (kochia (Bassia scoparia) [18]; 125 g ai/ha)?
Its value is 80.

And the “Kochia plant response rating” value (kochia (Bassia scoparia) [18]; 500 g ai/ha)?
Its value is 80.

What about the “Oat, Wild plant response rating” value ([19]; 125 g ai/ha) of the same molecule?
Its value is 90.

What about the “Oat, Wild plant response rating” value ([19]; 500 g ai/ha) of the same molecule?
Its value is 90.

And the “Amaranth, Palmer / Pigweed, Palmer plant response rating (0 to 100 scale)” value ([20]; 125 g ai/ha)?
Its value is 100.

What about the “Amaranth, Palmer / Pigweed, Palmer plant response rating (0 to 100 scale)” value ([20]; 500 g ai/ha) of the same molecule?
Its value is 100.

What about the “Ragweed plant response rating” value ([21]; 125 g ai/ha) of the same molecule?
The value was 70.

And the “Ragweed plant response rating” value ([21]; 500 g ai/ha)?
Its value is 80.

And the “Ryegrass, Italian plant response rating” value ([22]; 125 g ai/ha)?
The value was 80.

And the “Ryegrass, Italian plant response rating” value ([22]; 500 g ai/ha)?
Its value is 80.

What about the “Soybean plant response rating” value (soybean (Glycine max) [23]; 125 g ai/ha) of the same molecule?
Its value is 90.

And the “Soybean plant response rating” value (soybean (Glycine max) [23]; 500 g ai/ha)?
Its value is 90.

And the “Wheat plant response rating” value ([24]; 125 g ai/ha)?
Its value is 90.

What about the “Wheat plant response rating” value ([24]; 500 g ai/ha) of the same molecule?
Its value is 90.

What about the “Plant response rating, Barnyardgrass (0 to 100 scale, 0 is no effect and 100 is complete control)” value [25] of the same molecule?
The value was 75.

And the “Plant response rating, Ducksalad (0 to 100 scale, 0 is no effect and 100 is complete control)” value [26]?
Its value is 100.

And the “Plant response rating, Rice (0 to 100 scale, 0 is no effect and 100 is complete control)” value (rice (Oryza sativa))?
The value was 15.

And the “Plant response rating, Sedge, Umbrella (0 to 100 scale, 0 is no effect and 100 is complete control)” value [27]?
Its value is 100.
